Reference: US10723699B2 (Hyundai Pharm Co., Ltd., priority 2015, dated 2020)
“Also recorded” adds a separate entry of the source.

Columns and labels:
NCI-H716 cells = experiment: Promotion of glucagon-like peptide-1 (GLP-1) secretion (ELISA); type: cell-based, human; settings: 1, 10 and 30 μM-treated groups
Procedure: To evaluate an effect of the cyclohexene derivative according to the present invention on promotion of glucagon-like peptide-1 (GLP-1) secretion, experiments were carried out, as follows.
NCI-H716 cells that were human enterocytes were plated on 12 wells at 1×10^6 cells per well. After 48 hours, the cells were starved in serum-free media for 2 hours, and treated with a varying concentration of siptagliptin that was a dipeptidyl peptidase-IV (DPP-IV) inhibitor, and the compounds of Comparative Example 1 (1, 10, 30 μM), Comparative Example 5 (10 μM), Example 48 (1, 10, 30 μM), and Example 291 (1, 10, 30 μM). After an hour, supernatants are recovered to determine an amount of the secreted GLP-1 peptide. The GLP-1 measurement was performed using an enzyme-linked immunosorbant assay (ELISA; Millipore, EGLP-35K), and the amount of the secreted GLP-1 peptide was indicated by the unit “pM”.

[1] = test system: diet-induced obesity (DIO) rat model; experiment: Changes in weights in diet-induced obesity (DIO) rat model, 4-week administration; type: in vivo, Sprague Dawley (SD) rats; settings: 10, 20, and 50 mg/kg oral, 4 weeks
Procedure: To simultaneously evaluate both the weight-loss and hypoglycemic effects of the cyclohexene derivative according to the present invention, experiments were carried out, as follows.
(§1) Specifically, male Sprague Dawley (SD) rats (approximately 4 weeks old) in a diet-induced obesity model were fed with a high-fat diet (Lab. Diet Co.) for approximately 10 weeks to induce high-fat diet-induced obesity (DIO). The rats undergoing the high-fat diet were randomly selected, and divided into groups (n=8) for respective administrations. The compounds of Comparative Examples 3 and 4 and Examples 48 and 119 were administered to the divided DIO rats each group for 4 weeks.
(§2) The weights of the DIO rats were measured twice a week during a period of administration of 4 weeks to record a change in the weights. At the end of the 4-week period of administration, a hypoglycemic effect was evaluated using an oral glucose tolerance test (OGTT), as follows.

[2] = test system: diet-induced obesity (DIO) rat model; experiment: OGTT at the end of the 4-week administration in DIO rat model; type: in vivo, Sprague Dawley (SD) rats; settings: 50 mg/kg oral; glucose 2 g/kg 30 minutes later; after 4-week administration
Procedure: as §1, §2
Specifically, each of the compounds of Comparative Example 3 (300 mg/kg) and Examples 48 and 119 (10, 20, 50 mg/kg) was administered, and 2 g/kg of glucose was orally administered after 30 minutes of the administration. A blood glucose level was determined using an Accu-Chek Active Strip (Roche diagnostic Co.). In this case, the glucose level in blood collected via caudal venipuncture was measured at time points of −30, 0, 20, 40, 60, and 120 minutes after glucose administration. […]

CC(C)c1noc(N2CCC(COc3ccc(C4=CCC(C(=O)N5CC[C@@H](O)C5)CC4)cc3)CC2)n1 (stereo partly drawn) [Example 48, ((R)-3-hydroxypyrrolidin-1-yl)(4-(4-((1-(3-isopropyl-1,2,4-oxadiazol-5-yl)piperidin-4-yl)methoxy)phenyl)cyclohex-3-enyl)methanone]
GLP-1 secretion compared with Comparative Example 1 (NCI-H716 cells): higher level than that of Comparative Example 1 | changes in weights of rats (weight-loss effect) [1]: higher weight-loss effect; also recorded: persistent weight loss was observed for 4 weeks | hypoglycemic effect [2]: approximately 25%
